According to patent US9327059B2, “Steroid-containing sustained release intraocular implants and related methods” (Allergan, Inc., priority 2004, dated 2016):
Like-named read-outs stand apart in the source and are kept apart here.

How the values were obtained:
[1] = In vivo fluocinolone acetonide levels in rabbit eyes after intravitreal implant
Description: The in vivo study was conducted on four rabbits. The fluocinolone-containing implants were surgically implanted into the posterior segment (i.e., the vitreous) of the right eye (OD) and left eye (OS) of each rabbit. The aqueous humor (15-20 μL) and the vitreous humor (150-200 μL) were withdrawn for the first two rabbits, while the sampling for the remaining two rabbits was determined by a sampling schedule wherein the sampling days were days 7, 14, 21, 40, and 60, 90, and 120.

[2] = in vivo; cited from earlier work
[3] = Relative water solubility of the steroids; type: physicochemical

## CC1(C)O[C@@H]2C[C@H]3[C@@H]4C[C@H](F)C5=CC(=O)C=C[C@]5(C)[C@@]4(F)[C@@H](O)C[C@]3(C)[C@]2(C(=O)CO)O1 [Fluocinolone acetonide, 1,4-pregnadien-6α, 9α-difluoro-11β, 16α,17,21-tetrol-3,20-dione 16,17-acetonide]
[1]; implant configuration #29, any time point
  fluocinolone acetonide level in anterior chamber / aqueous humor: not detected
[1]; intravitreal implant configuration #29, day 40
  Fluocinolone (ng/mL) in vitreous humor, single eye: 40.80 ng/mL
[1]; vitreous humor, intravitreal implant configuration #29, day 7
  concentration at 7 day: 95.9 ng/mL
[1]; vitreous humor, intravitreal implant configuration #29, day 14
  concentration at 14 day: 50.9 ng/mL
[1]; vitreous humor, intravitreal implant configuration #29, day 21
  concentration at 21 day: 45.7 ng/mL
[1]; vitreous humor, intravitreal implant configuration #29, day 40, read-out: Fluocinolone (ng/mL) in vitreous humor, Average
  concentration at 40 day: 42.4 ng/mL
[1]; vitreous humor, intravitreal implant configuration #29, day 40, read-out: Fluocinolone (ng/mL) in vitreous humor, single eye
  concentration at 40 day: 44 ng/mL
[1]; vitreous humor, intravitreal implant configuration #29, day 60
  concentration at 60 day: 50.6 ng/mL
[1]; vitreous humor, intravitreal implant configuration #29, day 90
  concentration at 90 day: 36.1 ng/mL
[1]; vitreous humor, intravitreal implant configuration #29, day 120
  concentration at 120 day: 28.1 ng/mL

## CC(C)OC(=O)CCC/C=C\C[C@@H]1[C@@H](CC[C@@H](O)CCc2ccccc2)[C@H](O)C[C@@H]1O [latanoprost]
[2]
  human eyes with increase in brown pigment in the iris: 5-15%

## CC1(C)O[C@@H]2C[C@H]3[C@@H]4CCC5=CC(=O)C=C[C@]5(C)[C@@]4(F)[C@@H](O)C[C@]3(C)[C@]2(C(=O)CO)O1 [triamcinalone acetonide]
[3]
  water solubility, times more soluble than beclomethasone dipropionate: about 150 times
